Results as given in patent publication US20120077732A1, “CYCLIC PEPTIDES AND USES THEREOF” (SYDNEY WEST AREA HEALTH SERVICE, priority 2008, published 2012).

What was measured:
allergic mice (OVA/OVA) [1] = experiment: Allergic airways disease (OVA) model: inflammatory cells in BALF; format: in vivo; parameters: key to Airway lymphocytes / Airway eosinophils / Airway macrophages / Airway inflammatory cells / Airway neutrophils: nc: no change; ↑: increase; ↓: decrease
in vitro = format: cell-based
Procedure: (§1) First, to determine if the activity of C1 was due to toxicity, 2B4.11 T-cells (1×10^5) were cultured in microtiter wells in the presence of the peptide conjugates at 50 μM. After 20 hours, 30 μL were removed and cells assessed for viability by trypan blue staining. The remaining culture was then pulsed with 0.5 μCi [^3H] thymidine for 5 h, harvested, and quantitated for [^3H] thymidine uptake to assess cellular proliferation.

2B4.11 T-cells = experiment: in vitro; format: cell-based; settings: 50 μM, relative to 0.5% DMSO control; ±SD
Procedure: as §1

allergic mice (OVA/OVA) [2] = experiment: Allergic airways disease (OVA) model: airways hyperreactivity to methacholine; format: in vivo; parameters: key to Airway Resistance / Airway Compliance: nc: no change; ↑: increase; ↓: decrease
2B4.11 cells = experiment: T-cell activation with 2C11-145 antibody (CD3 crosslinking), IL-2 production; format: cell-based; settings: CD3 crosslinking with 2C11-145; 50 μM; relative to DMSO control; ±SD
Procedure: To analyse the mode of action of C1, T-cells were activated using 2C11-145 and H57-597 antibodies. The H57-597 antibody is directed against the TCRβ chain, and when administered at sub-optimal doses in conjunction with accessory cells (LK35.2), is capable of activating T cells. […] C1 was added to give a final reaction volume of 250 μL at 50 μM and 0.5% DMSO. […] T cells were also activated using the 2C11-145 antibody to crosslink the CD3 chains of the TCR, thereby bypassing the antigen recognition sub-units of the TCRα/β.

[3] = 200 μg s.c. during challenge, allergic mice
[4] = 200 μg/100 μl s.c. during OVA challenge, compared to OVA/OVA alone

For `CC(C)C[C@@H]1NC(=O)[C@@H](CC(C)C)NC(=O)[C@H](CCCNC(=N)N)NC(=O)[C@@H](CC(C)C)NC(=O)CNC(=O)[C@@H](C(C)C)NC(=O)[C@H](CCCCN)NC(=O)[C@@H](CC(C)C)NC(=O)[C@H](CC(C)C)NC(=O)[C@@H](CC(C)C)NC1=O` [C1, LDRLDLLDLLDKVDG], the “eosinophils in BALF” value (allergic mice (OVA/OVA) [1]; [3]) was “decrease”, the “total inflammatory cell counts in bronchoalveolar lavage fluid (BALF)” value (allergic mice (OVA/OVA) [1]; [3]) was “significantly decreased” and the Airway eosinophils (allergic mice (OVA/OVA) [1]; [4]) was “↓”. For the same compound, the Airway inflammatory cells (allergic mice (OVA/OVA) [1]; [4]) was “↓”, the Airway lymphocytes (allergic mice (OVA/OVA) [1]; [4]) was “nc” and the Airway macrophages (allergic mice (OVA/OVA) [1]; [4]) was “nc”. The Airway neutrophils (allergic mice (OVA/OVA) [1]; [4]) was “nc”, the viability at 20 h, 50 µM (in vitro) was 86.6% and the “cellular proliferation ([3H] thymidine uptake)” value (2B4.11 T-cells) was 62.56%±14.25. For the same compound, the “airway resistance in response to methacholine challenge” value (allergic mice (OVA/OVA) [2]; [3]) was “no significant effect”, the “dynamic compliance in response to methacholine challenge” value (allergic mice (OVA/OVA) [2]; [3]) was “no significant effect” and the “Airway Compliance” value (allergic mice (OVA/OVA) [2]; [4]) was “↑”. The “Airway Resistance” value (allergic mice (OVA/OVA) [2]; [4]) was “nc” and the “% IL-2 production” value (2B4.11 cells) was 50.00%+/−15.79.
